Reference: US20250161297A1, “COMPOSITIONS AND METHODS FOR INHIBITING FSP1” (THE REGENTS OF THE UNIVERSITY OF CALIFORNIA, priority 2022, published 2025)

Molecular target: T1, recombinant purified FSP1 (Homo sapiens, UniProt Q9BRQ8)
T1 construct: made in house; host or cells: E. coli LOBSTR-BL21 (DE3)
T1 sequence (Q9BRQ8 1-373): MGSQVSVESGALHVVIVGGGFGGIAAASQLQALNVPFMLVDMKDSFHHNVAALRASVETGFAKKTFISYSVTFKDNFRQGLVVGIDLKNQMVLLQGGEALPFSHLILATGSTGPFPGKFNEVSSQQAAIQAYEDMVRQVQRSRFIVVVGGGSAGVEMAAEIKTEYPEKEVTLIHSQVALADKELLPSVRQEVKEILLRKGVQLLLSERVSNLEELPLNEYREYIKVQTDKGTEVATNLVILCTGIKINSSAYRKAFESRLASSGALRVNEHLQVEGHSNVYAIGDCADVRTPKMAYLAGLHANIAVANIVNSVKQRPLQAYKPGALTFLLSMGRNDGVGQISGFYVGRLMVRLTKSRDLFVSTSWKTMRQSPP
Assay: FSP1 enzyme kinetics with NADH, CoQ-coumarin and CoQ1
Format: biochemical
Experimental: FSP1 Kinetics (NADH): To measure FSP1 kinetics, FSEN1 was dissolved and diluted in DMSO, and recombinant purified FSP1 was diluted in PBS. 0.5 μL FSEN1 and 12.5 μL FSP1 were mixed and incubated for 30 minutes in a NBS polystyrene 384-well plate (Corning Ref: 3640) at RT. Vehicle control wells included 0.5 μL DMSO and were absent of any FSEN1. NADH (Millipore Cat: 481913) was then dissolved and diluted in PBS and added to the plate wells. CoQ-Coumarin (Cayman Item: 29554) was dissolved in DMSO, diluted in PBS, and added to the plate wells to start the reaction. Final well volume was 25 μL, and final concentrations were 25 nM FSP1, 10UM CoQ-Coumarin, 1-50 μM NADH, and 50-500 nM FSEN1. […] Reduced CoQ-Coumarin fluorescence (Ex: 405 nm, Em: 475 nm) was measured as read-out of enzymatic product formation on a kinetic cycle with an interval time of 20 seconds at RT. […] Raw data from 3 biological replicates were then plotted and initial slopes were calculated using a linear regression in prism (GraphPad).
FSP1 Kinetics (CoQ-Coumarin): To measure FSP1 kinetics, FSEN1 was dissolved and diluted in DMSO, and recombinant purified FSP1 was diluted in PBS. […] Reduced CoQ-Coumarin fluorescence (Ex: 405 nm, Em: 475 nm) was measured as read-out of enzymatic product formation on a kinetic cycle with an interval time of 15 seconds at RT. […]

change in Kcat (as FSEN1 concentrations increased): decrease in Kcat values
mechanism of FSP1 inhibition (increasing NADH and CoQ-coumarin, Lineweaver-Burke plots parallel): uncompetitive inhibitor
Compound: COc1ccc(N2CCN(Cc3cn4c(-c5ccc(Br)cc5)nnc4s3)CC2)cc1 [FSEN1]
